Patent US12473250B2, “Molecular design of new antibiotics and antibiotic adjuvants against MCR strains” (priority 2019, dated 2025)
Converted amounts (≈) assume the structure as drawn.

What was measured:
[1] = system: Gram positive bacteria (SA and MRSA strains); test: Antimicrobial effect on Gram positive bacteria (Table 8); assay type: cell-based; parameters: key to antimicrobial effect on Gram positive bacteria: MIC (concentration giving 99% inhibition), concentrations in μg; conditions: compound alone
Protocol: MIC experiments of the antimicrobial agents were determined by a modified broth microdilution method in accordance with the Clinical and Laboratory Standards Institute (CLSI) guidelines using 96 well culture plates. In brief, serial dilutions of all plates were prepared at different concentrations (μg). The inoculum suspension was prepared by adding isolated colonies from a 18-20 hours on TSA plate into phosphate buffer (0.31 mM, pH 7.2) or in water for injection (BBraun) and adjusting the suspension to a turbidity equivalent to 0.5 McFarland Standard. Each well contained a final bacterial concentration of approximately 5×10^5 colony forming units (CFU)/mL. The plate was covered and incubated at 35° C. for 24 hours. […] For the microdilution plates, turbidity in wells can be measured at OD600 using TECAN infinite M200Pro. MIC was determined as […] concentration that gives a 99 percent inhibition.
The antimicrobial activity of the inventive combination was also tested against Gram positive bacteria, including the multi-drug resistant strains, such as MRSA. […] This means the combination of LC100/LC101 with colistin has broad antimicrobial spectrum, being active against both Gram positive and Gram negative bacteria.

[2] = Calcein leakage from large unilamellar vesicles; conditions: vesicles of 100 nm, DOPE/DOPG=3/1
Source text: FIG. 20 refers to a graph showing calcein leakage of LC100 and LC101 using large unilamellar vesicles of 100 nm. The lipid composition of the vesicle is DOPE/DOPG=3/1, mimicking the bacterial inner membrane. […] Further increase of LC100 or LC101 leads to decrease in the florescence because of a fluorescence quenching effect.

[3] = system: colistin resistant MCR (−) E. Cloacae strain 7023456439; test: Synergy study: colistin MIC in the presence of compound; assay type: cell-based; conditions: strain 7023456439 E. Cloacae, compound at 10 μg (Table 2a: 10 ug/ml)
Method in brief: (§1)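 CLSI broth microdilution with colistin and LC compound added in equal amounts, 2-fold serial dilution, alone or combined at fixed synergy concentration. MIC taken as lowest concentration with no visible growth after 24 hours of incubation.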

[4] = system: colistin resistant MCR (+) E. Coli strains; test: as above; assay type: cell-based; conditions: against mcr-1 bacteria; in words
Method in brief: as §1

[5] = system: colistin resistant MCR (−) E. Coli strains; test: as above; assay type: cell-based; conditions: compound at 10 μg (Table 2a: 10 ug/ml)
Method in brief: as §1

[6] = system: colistin resistant MCR (−) E. Cloacae strain 7023456439; test: MIC, broth microdilution, compound alone; assay type: cell-based; conditions: strain 7023456439 E. Cloacae
Method in brief: (§2)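 Modified CLSI broth microdilution; inoculum from 18–20 h TSA colonies adjusted to 0.5 McFarland, ~5×10^5 CFU/mL per well. Plates incubated 24 h at 35 °C; turbidity may be read at OD600. MIC defined as concentration giving 99% inhibition.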

[7] = system: colistin resistant MCR (+) E. Coli strains; test: MIC, broth microdilution, compound alone; assay type: cell-based; conditions: compound alone
Method in brief: as §2

[8] = system: colistin resistant MCR (−) E. Coli strains; test: MIC, broth microdilution, compound alone; assay type: cell-based
Method in brief: as §2

[9] = system: 6083655967 [MCR 1+; E.Coli]; test: Synergistic study between LC100 or LC101 with B2088; assay type: cell-based; conditions: for Combination MIC: strain 6083655967, value of each component
Protocol: The MICs of the individual drugs and LC compound in combinations were determined using the broth microdilution technique as recommended by the CLSI whereby the two anti-microbial agents were added in an equal amount. (e.g.: 50 μL of Colistin: 50 μL of LC compounds). Diluted media containing compounds and antibiotics will be serially diluted 2-fold, and LC compounds and antibiotics alone or in combination will be assayed at fixed synergy concentration. In all cases, the lowest concentration at which no visible growth occurred was be recorded to be the MIC value of individual and combined antibacterial agents. The results were obtained after 24 hours of incubation.
Using the combination of LC100 and colistin, the activity of a broad range of strains was further tested (Table 7).

COC(=O)C(CCCNC(=N)N)NC(=O)COc1ccc(/C=C/C(=O)c2ccc(OCC(=O)NC(CCCNC(=N)N)C(=O)OC)c(CC=C(C)C)c2O)cc1 (stereo not drawn) [LC101]
activity against Gram positive strains ([1]; in words): good activity
antimicrobial effect on Gram positive bacteria ([1]; strain MRSA ATCC 43300): 6.25
antimicrobial effect on Gram positive bacteria ([1]; strain MRSA ATCC 700699): 6.25
antimicrobial effect on Gram positive bacteria ([1]; strain MRSA DM 21455): 3.125
antimicrobial effect on Gram positive bacteria ([1]; strain SA ATCC 6538): 3.125
antimicrobial effect on Gram positive bacteria ([1]; strain SA ATCC 29213): 3.125
antimicrobial effect on Gram positive bacteria ([1]; strain SA DM 4400R): 3.125
calcein leakage / disruption of vesicles [2]: significant florescence was detected
Colistin MIC in the presence of the compound [3]: >12.5 µg/mL
synergy with colistin [4]: excellent synergy
Colistin MIC in the presence of the compound ([5]; strain 6083672926, MCR(−)): <0.195 µg/mL
Colistin MIC in the presence of the compound ([5]; strain 7023446108, MCR(−)): <0.195 µg/mL
Colistin MIC in the presence of the compound ([5]; strain 7033607097, MCR(−)): <0.195 µg/mL
MIC [6]: >50 µg/mL
MIC ([7]; strain 6075066346, MCR (+)): 25 µg/mL (≈ 32 µM)
MIC ([7]; strain 6083655967, MCR (+)): 25 µg/mL (≈ 32 µM)
MIC ([7]; strain 6103645107, MCR (+)): 25 µg/mL (≈ 32 µM)
MIC ([7]; strain 6123520276, MCR (+)): 50 µg/mL (≈ 64 µM)
MIC ([7]; strain 7013177695, MCR (+)): 25 µg/mL (≈ 32 µM)
MIC ([7]; strain 7023436560, MCR (+)): 25 µg/mL (≈ 32 µM)
MIC ([7]; strain 7023444207, MCR (+)): 25 µg/mL (≈ 32 µM)
MIC ([8]; strain 6083672926, MCR (−)): 25 µg/mL (≈ 32 µM)
MIC ([8]; strain 7023446108, MCR (−)): 25 µg/mL (≈ 32 µM)
MIC ([8]; strain 7033607097, MCR (−)): 50 µg/mL (≈ 64 µM)
Combination MIC ([9]; combination B2088 (Ac) + LC 101): 2 µg/mL
Combination MIC ([9]; combination B2088 + LC 101): 2 µg/mL
level of synergistic effect with B2088 ([9]; killing E. coli with the mcr-1 mutation): 1 µg/mL
